This series in a line: Phase 1b study: safety and tolerability. Type of series: in vivo, human. An excerpt:
All subjects were followed for safety for 30 days after the Day 10 visitor 30 days after their last dose of study drug (vadadustat or ESA) if they discontinued study drug treatment early. Subjects returned to the clinic for safety assessments 2-5 days after completing Day 10/EOT and concluded the study with a follow-up telephone call to assess for AEs and concomitant medications 30 days after their last dose of study drug.
Safety Endpoints. Safety could be evaluated by: adverse events (AE), electrocardiogram (ECG), vital signs measurements, and clinical laboratory values.
Safety Population was defined as all subjects who received at least one dose of study drug. This population was analyzed based upon the actual treatment received.

Consider 1 molecule from patent US12697330B2, “Therapeutic methods using vadadustat” (Akebia Therapeutics, Inc., priority 2021, dated 2026).

The structures appear in SMILES notation.

As to `O=C(O)CNC(=O)c1ncc(-c2cccc(Cl)c2)cc1O` [vadadustat, {[5-(3-chlorophenyl)-3-hydroxypyridine-2-carbonyl]amino}acetic acid], the “incidence of drug-related Treatment Emergent Adverse Events (TEAEs)” value (3 vadadustat treatment arms) was “infrequent and similar across all 3 treatment arms”. For the same molecule, under “600, 750, 900 mg QD, 10 days”, the safety concerns entry is given as “No major safety concerns were observed”. Besides, the tolerability entry (oral administration, 600, 750, 900 mg QD, 10 days) was “generally well tolerated”.
